In PMC5731250 (Cell, 2017):
Read-outs that look alike come from different tables or passages of the source.

Legend:
[1] = test system: male C57BL/6J mice; assay: animal or person; type: in vivo; conditions: Mus musculus, ip, 1 h, read-out: ED50 (95% confidence intervals) Hot Plate
[2] = test system: male C57BL/6J mice; assay: animal or person; type: in vivo; conditions: Mus musculus, ip, 1 h, read-out: ED50 (95% confidence intervals) Tail Flick
[3] = in vivo; conditions: male, C57BL/6J, mouse, ip
[4] = test system: MOR; conditions: operational model; ref DeWire et al., 2013; cited from earlier work

Row | Structure (SMILES) | ED50 [1] [mg/kg] | ED50 [2] [mg/kg] | ED50 [3] [mg/kg] | ED50 ([3]; ED50 (95% confidence intervals) %O2 Saturation) [mg/kg] | bias factor (G protein signaling over βarrestin pathway) [4]
1 | CN1CC[C@]23c4c5ccc(O)c4O[C@H]2[C@@H](O)C=C[C@H]3[C@H]1C5 [Morphine] | 5.9 | 3.8 | 33 | 79 | –
2 | COc1ccsc1CNCC[C@@]1(c2ccccn2)CCOC2(CCCC2)C1 [TRV-130] | – | – | – | – | 3
